Measurements taken from patent US8318950B2, “N-acyl amino acid derivatives, a method for the preparation thereof, a pharmaceutical composition and use thereof as anti-allergic, anti-inflammatory and hypolipidemic agents” (Otkrytoe Aktsionernoe Obschestvo-Otechestvennye Lekarstva, priority 2005, dated 2012).
Values joined by “and” are separate entries in the source; they are usually repeats but may differ in a detail not shown here. Equal entries are not always repeated.

Tested on: hypercholesterolemia in Wistar rats
Experiment: Model of hypercholesterolemia in rats (oral cholesterol loading)
Assay type: in vivo, rat
Experimental: The study was carried out on male Wistar rats weighing 200±20 g. Hyperlipidemia was induced by oral administration of cholesterol loading, oily cholesterol suspension:
olive oil (Acorsa, Spain)—5 ml/kg weigh of animals;
cholesterol (Sigma, USA)—1 g/kg weight;
sodium cholate (Sigma, USA)—100 mg/kg weight.
As a reference preparation, the preparation from the group of statines “Mevacor” (Lovastatine) manufactured by the firm Merck Sharp & Dohn was used at dose 40 mg/kg. Cholesterol suspension was administered daily in the morning for 10 days. The compounds tested (at dose 500 μg/kg) and the reference preparation (at dose 40 mg/kg) were administered to the animals togester with cholesterol suspension for 10 days. All the animals received a standard briquetted forage.
The animals were divided into the following groups:
“Control”—intact animals (n=5);
“Cholesterol”—rats that orally received cholesterol loading (n=10);
“Lovastatine”—rats that orally received cholesterol loading and Lovastatine (n=10);
“Compound IV”—rats that orally received cholesterol loading and the tested compound IV (n=10).
Blood was sampled at days 5, 8 and 10 of the experiment.
Statistical processing of the hypolipidemic action data of the tested substances was carried out with regard to the “Cholesterol” group (Table 13).
Experimental groups included:
1) “Cholesterol”—rats orally administered with oily cholesterol suspension for 10 days;
2) “Compound IV”—rats orally administered with oily cholesterol suspension and the tested compound N;
3) “Compound IV—1Na”—rats orally administered with oily cholesterol suspension and the tested mono-sodium salt of compound N;
4) “Compound IV—2Na”—rats orally administered with oily cholesterol suspension and the tested di-sodium salt of compound N;
5) “Compound V—1Na”—rats orally administered with oily cholesterol suspension and the tested mono-sodium salt of the compound V;
6) “Compound III—1Na”—rats orally administered with oily cholesterol suspension and the tested mono-sodium salt of the compound III;
7) “Compound II—1Na”—rats orally administered with oily cholesterol suspension and the tested mono-sodium salt of the compound II;
8) “Sim”—rats orally administered with oily cholesterol suspension and Simvastatine;
9) control—intact rats before beginning the test.
At day 10 of the test blood samples were taken following decapitation of the animals. The animals fasted for 12 hours prior to decapitation.
Blood serum total cholesterol, triglycerides and high density lipoprotein cholesterol (HDLC) were measured. Low and very low density lipoprotein cholesterol was calculated by the difference between total cholesterol and HDL cholesterol.
Blood serum total cholesterol and triglycerides were determined using the enzymatic methods.
Cholesterol level in high density lipoproteins (α-LP) was determined using the precipitation method of LDL and VLDL with phosphotungstic acid and magnesium ions.
Data in the tables are presented as a mean value±standard error. Significance of differences between the groups “cholesterol” and “preparation.” was assessed by the two-sampled Student's t-test.

[1] = day 5 of the experiment (Table 15)
[2] = day 5 of the experiment (Table 15), oral with oily cholesterol suspension
[3] = day 8 of the experiment (Table 16)
[4] = day 10 of the experiment (Table 17)
[5] = day 10 of the experiment (Table 21), Monosodium Salt
[6] = day 5 of the experiment (Table 19)
[7] = day 5 of the experiment (Table 19, n = 12 series)
[8] = day 8 of the experiment (Table 20)
[9] = day 10 of the experiment (Table 21)
[10] = rats with cholesterol loading, vs Cholesterol group
[11] = oral 10 days with cholesterol loading, tested compound 500 μg/kg, reference 40 mg/kg (Table 13)

SMILES: O=C([O-])CCCC(=O)N[C@@H](Cc1c[nH]cn1)C(=O)O.[Na+] [Compound IV-1Na, N^α-glutaryl-L-histidine Monosodium Salt]
- Total cholesterol, HDL [1]: 33.1 ± 1.4 mg/100 ml
- Total cholesterol, LDL + VLDL [1]: 38.8 ± 2.9 mg/100 ml
- Triglycerides, Serum [1]: 106.6 ± 6.2 mg/100 ml
- Total cholesterol, Serum [2]: 72.0 ± 3.0 mg/100 ml
- Total cholesterol, HDL (day 5 of the experiment (Table 19), Monosodium Salt): 60.7 ± 3.1 mg/100 ml and 55.1 ± 2.8 mg/100 ml
- Total cholesterol, Serum (day 5 of the experiment (Table 19, n = 12 series), Monosodium Salt): 94.4 ± 3.4 mg/100 ml and 96.9 ± 4.5 mg/100 ml
- Total cholesterol, HDL [3]: 37.1 ± 1.4 mg/100 ml
- Total cholesterol, LDL + VLDL [3]: 61.9 ± 6.6 mg/100 ml
- Total cholesterol, Serum [3]: 99.1 ± 6.0 mg/100 ml
- Triglycerides, Serum [3]: 146.4 ± 11.2 mg/100 ml
- Total cholesterol, HDL [4]: 37.7 ± 1.0 mg/100 ml
- Total cholesterol, LDL + VLDL [4]: 59.7 ± 7.2 mg/100 ml
- Total cholesterol, Serum [4]: 97.4 ± 7.1 mg/100 ml
- Triglycerides, Serum [4]: 132.5 ± 8.4 mg/100 ml
- Total cholesterol, HDL [5]: 53.4 ± 2.2 mg/100 ml and 52.9 ± 3.8 mg/100 ml
- Total cholesterol, LDL + VLDL [5]: 68.7 ± 10.1 mg/100 ml and 70.5 ± 8.9 mg/100 ml
- Total cholesterol, Serum [5]: 122.1 ± 9.8 mg/100 ml and 123.3 ± 7.3 mg/100 ml

SMILES: O=C([O-])CCCC(=O)N[C@@H](Cc1c[nH]cn1)C(=O)[O-].[Na+].[Na+] [Compound IV” 2Na, N^α-glutaryl-L-histidine disodium salt]
- Total cholesterol, HDL [1]: 35.0 ± 1.3 mg/100 ml
- Total cholesterol, LDL + VLDL [1]: 44.3 ± 2.7 mg/100 ml
- Triglycerides, Serum [1]: 88.3 ± 4.8 mg/100 ml
- Total cholesterol, Serum [2]: 80.6 ± 2.8 mg/100 ml
- Total cholesterol, HDL [3]: 35.9 ± 1.8 mg/100 ml
- Total cholesterol, LDL + VLDL [3]: 54.3 ± 5.8 mg/100 ml
- Total cholesterol, Serum [3]: 90.2 ± 5.1 mg/100 ml
- Triglycerides, Serum [3]: 125.8 ± 9.4 mg/100 ml
- Total cholesterol, HDL [4]: 40.0 ± 1.9 mg/100 ml
- Total cholesterol, LDL + VLDL [4]: 57.3 ± 4.3 mg/100 ml
- Total cholesterol, Serum [4]: 97.9 ± 3.9 mg/100 ml
- Triglycerides, Serum [4]: 127.3 ± 6.2 mg/100 ml
- effect on serum total triglycerides (in words) (rats with cholesterol loading): lowered serum total triglyceride levels at days 5 and 10

SMILES: O=C([O-])CCC(=O)N[C@@H](Cc1c[nH]cn1)C(=O)O.[Na+] [Compound V—1Na, N^α-succinyl-L-histidine Monosodium Salt]
- effect on serum total triglycerides (in words) (rats with cholesterol loading): ability thereof to lower serum total triglyceride levels

SMILES: O=C(O)CCC(=O)N[C@@H](Cc1c[nH]c2ccccc12)C(=O)[O-].[Na+] [II-1Na, N^+-succinyl-L-tryptophane Monosodium Salt]
- Total cholesterol, HDL [6]: 49.5 ± 3.8 mg/100 ml
- Total cholesterol, LDL + VLDL [6]: 60.2 ± 10.6 mg/100 ml
- Triglycerides, HDL [6]: 32.6 ± 2.5 mg/100 ml
- Triglycerides, LDL + VLDL [6]: 48.2 ± 4.9 mg/100 ml
- Triglycerides, Serum [6]: 80.9 ± 5.5 mg/100 ml
- Total cholesterol, Serum [7]: 109.7 ± 9.4 mg/100 ml
- Total cholesterol, HDL [8]: 52.9 ± 4.1 mg/100 ml
- Total cholesterol, LDL + VLDL [8]: 87.9 ± 14.5 mg/100 ml
- Total cholesterol, Serum [8]: 140.8 ± 13.6 mg/100 ml
- Triglycerides, HDL [8]: 44.5 ± 2.5 mg/100 ml
- Triglycerides, LDL + VLDL [8]: 73.9 ± 15.4 mg/100 ml
- Triglycerides, Serum [8]: 111.6 ± 17.2 mg/100 ml
- Total cholesterol, HDL [9]: 54.7 ± 2.2 mg/100 ml
- Total cholesterol, LDL + VLDL [9]: 79.7 ± 12.6 mg/100 ml
- Total cholesterol, Serum [9]: 134.4 ± 12.5 mg/100 ml
- Triglycerides, HDL [9]: 38.9 ± 2.4 mg/100 ml
- Triglycerides, LDL + VLDL [9]: 69.6 ± 11.1 mg/100 ml
- Triglycerides, Serum [9]: 108.5 ± 11.3 mg/100 ml

SMILES: O=C([O-])CCCC(=O)N[C@@H](Cc1c[nH]c2ccccc12)C(=O)O.[Na+] [III-1Na, N^α-glutaryl-L-tryptophan Monosodium Salt]
- Total cholesterol, HDL [6]: 49.0 ± 2.1 mg/100 ml
- Total cholesterol, LDL + VLDL [6]: 40.0 ± 5.4 mg/100 ml
- Triglycerides, HDL [6]: 30.0 ± 2.2 mg/100 ml
- Triglycerides, LDL + VLDL [6]: 57.4 ± 9.1 mg/100 ml
- Triglycerides, Serum [6]: 87.4 ± 9.4 mg/100 ml
- Total cholesterol, Serum [7]: 89.0 ± 5.0 mg/100 ml
- Total cholesterol, HDL [8]: 48.4 ± 2.7 mg/100 ml
- Total cholesterol, LDL + VLDL [8]: 60.4 ± 8.3 mg/100 ml
- Total cholesterol, Serum [8]: 108.8 ± 8.2 mg/100 ml
- Triglycerides, HDL [8]: 45.2 ± 3.2 mg/100 ml
- Triglycerides, LDL + VLDL [8]: 79.2 ± 7.7 mg/100 ml
- Triglycerides, Serum [8]: 124.4 ± 8.9 mg/100 ml
- Total cholesterol, HDL [9]: 48.8 ± 2.4 mg/100 ml
- Total cholesterol, LDL + VLDL [9]: 53.5 ± 7.3 mg/100 ml
- Total cholesterol, Serum [9]: 102.3 ± 6.9 mg/100 ml
- Triglycerides, HDL [9]: 34.3 ± 2.3 mg/100 ml
- Triglycerides, LDL + VLDL [9]: 75.0 ± 8.5 mg/100 ml
- Triglycerides, Serum [9]: 109.3 ± 10.5 mg/100 ml
- effect on HDL cholesterol (in words) (rats with cholesterol loading): did not change
- effect on serum total triglycerides (in words) (rats with cholesterol loading): did not change
- lowered cholesterol of the VLDL+LDL fractions [10]: 40%
- lowered total cholesterol [10]: 29%

SMILES: CC[C@H](C)C(=O)O[C@H]1C[C@@H](C)C=C2C=C[C@H](C)[C@H](CC[C@@H]3C[C@@H](O)CC(=O)O3)[C@H]21 [Lovastatine, reference compound]
- Total cholesterol, CHDL [11]: 50.6 ± 1.3 mg/100 ml
- Total cholesterol, CLLD + CLVLD [11]: 49.9 ± 0.9 mg/100 ml
- Total cholesterol, Liver [11]: 2.41 ± 0.17 mg/g of tissue
- Total cholesterol, Serum [11]: 100.5 ± 6.7 mg/100 ml
- Triglycerids, Liver [11]: 6.25 ± 0.13 mg/g of tissue
- Triglycerids, Serum [11]: 93.6 ± 7.5 mg/100 ml

SMILES: CCC(C)(C)C(=O)O[C@H]1C[C@@H](C)C=C2C=C[C@H](C)[C@H](CC[C@@H]3C[C@@H](O)CC(=O)O3)[C@H]21 [Sim, Simvastatine, reference compound]
- Total cholesterol, HDL [1]: 27.8 ± 2.7 mg/100 ml
- Total cholesterol, LDL + VLDL [1]: 43.0 ± 8.3 mg/100 ml
- Triglycerides, Serum [1]: 108.9 ± 6.9 mg/100 ml
- Total cholesterol, Serum [2]: 73.6 ± 7.3 mg/100 ml
- Total cholesterol, HDL [3]: 33.2 ± 1.8 mg/100 ml
- Total cholesterol, LDL + VLDL [3]: 66.9 ± 13.4 mg/100 ml
- Total cholesterol, Serum [3]: 100.1 ± 12.8 mg/100 ml
- Triglycerides, Serum [3]: 119.9 ± 10.5 mg/100 ml
- Total cholesterol, HDL [4]: 32.7 ± 1.2 mg/100 ml
- Total cholesterol, LDL + VLDL [4]: 61.2 ± 9.7 mg/100 ml
- Total cholesterol, Serum [4]: 93.9 ± 10.2 mg/100 ml
- Triglycerides, Serum [4]: 142.0 ± 5.4 mg/100 ml
- effect on HDL cholesterol (in words) (rats with cholesterol loading): did not effect
